≈ marks a conversion by molar mass, not a printed value. Entries after “also recorded” stand apart in the source; their conditions may differ.
How the values were obtained:
Assay type in all cases: physicochemical
[1] = Variable temperature XRPD (VT XRPD)
Protocol: For variable temperature (VT) experiments the samples were prepared and analysed in an Anton Paar chromed sample holder. A heating/cooling rate of 10° C./min was used with a 2 min isothermal hold before the measurement started. The measurement parameters are as per the standard screening data collection method (detailed above). Measurements were taken at the following temperatures: 25, 50, 75, 100, 160, and 25° C. The sample was then reanalyzed by XRPD after 1 h to check for complete rehydration.
MH1 was analysed at 25, 50, 75, 100, 160 and 25° C. (10° C./min heating rate and a 2 min wait before the measurement started) on the Empyrean. The sample was then reanalysed by XRPD after 10 and 20 min to check for rehydration.
(§1) Procedure: A second batch of MH2 material was prepared using the same procedure. This sample was then analysed by VTXRPD and by XRPD under vacuum.

[2] = Gravimetric Vapour Sorption (GVS)
Protocol: Sorption isotherms were obtained using a SMS DVS Intrinsic moisture sorption analyzer, controlled by DVS Intrinsic Control software. The sample temperature was maintained at 25° C. by the instrument controls. The humidity was controlled by mixing streams of dry and wet nitrogen, with a total flow rate of 200 ml/min. The relative humidity was measured by a calibrated Rotronic probe (dynamic range of 1.0-100% RH), located near the sample. The weight change, (mass relaxation) of the sample as a function of % RH was constantly monitored by a microbalance (accuracy ±0.005 mg).
Typically, 5-30 mg of sample was placed in a tared mesh stainless steel basket under ambient conditions. The sample was loaded and unloaded at 40% RH and 25° C. (typical room conditions). A moisture sorption isotherm was performed as outlined below (2 scans per complete cycle). The standard isotherm was performed at 25° C. at 10% RH intervals over a 0-90% RH range. Typically, a double cycle (4 scans) was carried out. Data analysis was carried out within Microsoft Excel using the DVS Analysis Suite.
The sample was recovered after completion of the isotherm and re-analyzed by XRPD.

[3] = Thermodynamic aqueous solubility; details: thermodynamic from solid, water, 25° C.
Protocol: Aqueous solubility was determined by suspending sufficient compound in relevant media to give a maximum final concentration of ≥200 mg/ml of the parent freeform of the compound. The suspension was equilibrated at 25° C., on a Heidolph plate shaker set to 750 rpm for 24 hours. The pH of the saturated solution was then measured and the suspension filtered through a glass fibre C filter (particle retention 1.2 μm) and diluted appropriately. Quantitation was by HPLC with reference to a standard solution of approximately 0.15 mg/ml in DMSO. Different volumes of the standard, diluted and undiluted sample solutions were injected.
The solubility was calculated using the peak areas determined by integration of the peak found at the same retention time as the principal peak in the standard injection.
Analysis was performed on an Agilent HP1100 series system equipped with a diode array detector and using ChemStation software.

XRPD under vacuum = assay: XRPD under vacuum
Protocol: For vacuum experiments the samples were prepared and analysed in an Anton Paar chromed sample holder. The measurement parameters are as per the standard screening data collection method (detailed above), at 25° C. with no vacuum (I2). A vacuum of around 50 mbar was then applied and the sample measured every 5 min until the anhydrate pattern was obtained for three consecutive measurements (to ensure complete dehydration, up to sample I8). The vacuum was then released and the sample analysed every 5 min for 6 measurements (until sample I22). The sample was then reanalyzed by XRPD after 1 h to check for complete rehydration.
MH1 was analysed at 25° C. with no vacuum. A vacuum of around 50 mbar was then applied and the sample measured every 5 min until the anhydrate pattern was obtained for three consecutive measurements (to ensure complete dehydration). The vacuum was then released and the sample analysed every 5 min for 6 measurements before the front of the sample stage was removed.
as §1

[4] = Solubility repeat at pH 1.2 (reverse addition); details: pH 1.2 buffered media, pH maintained at 1.2, reverse addition
Protocol: Procedure: pH 1.2 buffered media (0.4 ml) was added to two separate 7 ml vials. For each compound, material was added in portions to the pH 1.2 media. After each addition of compound, the vial was vortex mixed and the pH and appearance was recorded. The samples were adjusted to pH 1.2 with 1M HCl to within 0.05 of the desired pH unit. This was repeated until no further material was available (˜400 mg for each form, which would give a maximum concentration of around 1000 mg/ml if no adjustment was required).

[5] = pH profiling solubility experiments; details: 25 °C, thermodynamic from solid
Protocol: Procedure: pH profiling solubility experiments were performed on MH1 and MH2. Solubility was determined in singlicate by suspending sufficient compound in relevant media (1.00 ml) to give a maximum final concentration as shown in the Table 17.
The suspensions were equilibrated at 25° C., on a Heidolph plate shaker set to 750 rpm for 24 hours. Samples were pH adjusted as required using 0.5M/1M HCl and 0.2M NaOH to within 0.1 of the desired pH unit (where possible). The pHs of the saturated solutions were measured (where applicable) and an appearance was recorded. The suspensions were filtered through a glass fibre C filter (particle retention […]) and diluted appropriately. Quantitation was by HPLC with reference to a standard solution of approximately 0.15 mg/ml in DMSO. Different volumes of the standard, diluted and undiluted sample solutions were injected. The solubility was calculated using the peak areas determined by integration of the peak found at the same retention time as the principal peak in the standard injection.

[6] = Drying investigation of the two hydrates (vacuum oven, XRPD and TGA)
Protocol: Procedure: MH1 and MH2 were placed in a vacuum oven at 50° C. and RT for 24 h. The samples were then analysed by TGA and XRPD immediately after removal and after 4 hours standing under ambient conditions.

## C[C@@H]1CN(Cc2ncccn2)C[C@H]1c1cn2c(C3CCOCC3)ncc2c(=O)[nH]1 [MH2, 6-[(3S,4S)-4-methyl-1-(pyrimidin-2-ylmethyl)pyrrolidin-3-yl]-3-tetrahydropyran-4-yl-7H-imidazo[1,5-a]pyrazin-8-one]
[1]; 50° C.
  Form by VT XRPD upon heating: mixture of MH2 and AH
[1]; 75° C.
  Form by VT XRPD upon heating: complete conversion to AH
[1]; re-cooled to 25° C.
  Form by VT XRPD after cooling back: completely transformed into MH1
[2]; 40 to 90% RH, 25° C.
  GVS first sorption cycle uptake: lack of uptake; also recorded: First sorption cycle from 40 to 90% RH, no uptake
[2]; solid form after GVS
  XRPD post-GVS: rehydrated as MH1; also recorded: Crystalline - Matches MH1
[3]
  solubility thermodynamic at 24 h: 36.5 mg/mL (≈ 92.5 mM)
XRPD under vacuum; data collected for 55 minutes after release
  Final XRPD pattern after vacuum released: mixture of AH and MH1
XRPD under vacuum; reanalyzed after 1 h
  Form by XRPD on reanalysis: complete rehydration to MH 1
XRPD under vacuum; vacuum of around 50 mbar, 25° C.
  Time under vacuum to conversion to the anhydrate by XRPD: 5 min
[4]
  Solubility at pH 1.2: >161 mg/ml
[5]; pH 1.2 media, pH 1.2, simulated gastric fluid, media pH 1.2, 25° C., pH not maintained, final pH 5.02 (MH1-A), 6.63 (MH2-A)
  solubility at 24 h: > 275 mg/mL
[5]; pH 4.0 media, pH 4, aqueous buffer, media pH 4.0, 25° C.
  solubility at 24 h: > 99 mg/mL
[5]; pH 6.5 media, pH 6.5, aqueous buffer, media pH 6.5, 25° C.
  solubility at 24 h: > 147 mg/mL
[5]; pH 7.5 media, pH 7.5, aqueous buffer, media pH 7.5, 25° C.
  solubility at 24 h: 58 mg/mL (≈ 147 mM)
[6]; vacuum oven 50° C. 24 h, immediately after removal
  XRPD (T = 0, 50° C.): Matches MH1 and AH
[6]; vacuum oven 50° C. 24 h, immediately after removal, lost between 25 and 100° C.
  TGA (T = 0, 50° C.): 0.6% w/w lost between
[6]; vacuum oven 50° C. 24 h, then 4 hours ambient, lost between 25 and 100° C.
  TGA (T = 4 h, 50° C.): 1.9% w/w lost between
[6]; vacuum oven 50° C. 24 h, then 4 hours at ambient conditions
  XRPD (T = 4 h, 50° C.): Matches MH1
[6]; vacuum oven RT 24 h, immediately after removal
  XRPD (T = 0, RT): Matches MH1 and AH
[6]; vacuum oven RT 24 h, immediately after removal, lost between 25 and 100° C.
  TGA (T = 0, RT): 0.2% w/w lost between
[6]; vacuum oven RT 24 h, then 4 hours ambient, lost between 25 and 100° C.
  TGA (T = 4 h, RT): 1.9% w/w lost between
[6]; vacuum oven RT 24 h, then 4 hours at ambient conditions
  XRPD (T = 4 h, RT): Matches MH1

## C[C@@H]1CN(Cc2ncccn2)C[C@H]1c1cn2c(C3CCOCC3)ncc2c(=O)[nH]1 [anhydrate, 6-[(3S,4S)-4-methyl-1-(pyrimidin-2-ylmethyl)pyrrolidin-3-yl]-3-tetrahydropyran-4-yl-7H-imidazo[1,5-a]pyrazin-8-one]
[1]; after VT XRPD, standing at 25° C.
  Conversion under ambient conditions: readily converts to MH1
XRPD under vacuum; after vacuum XRPD, ambient air
  Conversion under ambient conditions: readily converts to MH1

— patent US12466832B2, “Monohydrate and crystalline forms of 6-[(3S,4S)-4-methyl-1-(pyrimidin-2-ylmethyl)pyrrolidin-3-yl]-3-tetrahydropyran-4-yl-7H-imidazo[1,5-a]pyrazin-8-one” (Cardurion Pharmaceuticals, Inc., priority 2018, dated 2025)
